Test [1] has as its target T1, c-FABPL (fatty acid-binding protein from G. gallus liver) (Gallus gallus, UniProt P80226).
T1 sequence (P80226 2-126): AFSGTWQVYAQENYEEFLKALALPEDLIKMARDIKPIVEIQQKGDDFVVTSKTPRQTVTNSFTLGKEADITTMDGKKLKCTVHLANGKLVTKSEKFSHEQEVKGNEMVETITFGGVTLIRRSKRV
As to the kind of experiment: […]-NMR titration (n.O.e., T1) and competition with cholate. More on the design: gene FABP1; purified from chicken liver, delipidated.

Test [2] addresses T1, c-FABPL (fatty acid-binding protein from G. gallus liver). As to the kind of experiment: […]-NMR (T1, n.O.e.) and displacement by cholate. On the set-up: gene FABP1; purified from chicken liver, delipidated.
The target is the same in test [3]. In words: […]-NMR titration with […]-enriched ligand; […]-NMR competition. On the set-up: gene FABP1; apo protein, purified from chicken liver.
Test [4] shares this target. In words: […]-NMR titration with […]-enriched ligand. On the set-up: gene FABP1; apo protein, purified from chicken liver.

For `CC(C)n1c(/C=C/[C@@H](O)C[C@@H](O)CC(=O)O)c(-c2ccc(F)cc2)c2ccccc21` (relative stereo) [compound 14, fluvastatin], the “19F-NMR titration (n.O.e., T1) and competition with cholate” value in test [1] is “Symmetric competition experiments between fluvastatin and cholate”. With `CCCCCCCCCCCCCCC(F)C(=O)O` (stereo not shown) [16–17, 2-fluoropalmitate], the “19F-NMR (T1, n.O.e.) and displacement by cholate” value in test [2] is on record as “only using a tenfold excess of cholate the ligand was completely removed from the protein”.

Regarding `C[C@H](CCC(=O)O)[C@H]1CC[C@H]2[C@@H]3[C@H](O)C[C@@H]4C[C@H](O)CC[C@]4(C)[C@H]3C[C@H](O)[C@]12C` [compound 7, cholate], in test [3], the “13C-NMR titration with 13C-enriched ligand; 19F-NMR competition” value is “The titration indicates two sites of comparable affinity for cholate, and of different affinity for glycocholate”.

For `C[C@H](CCC(=O)NCC(=O)O)[C@H]1CC[C@H]2[C@@H]3[C@H](O)C[C@@H]4C[C@H](O)CC[C@]4(C)[C@H]3C[C@H](O)[C@]12C` [glycocholate], the “13C-NMR titration with 13C-enriched ligand” value in test [4] was “The titration indicates two sites of comparable affinity for cholate, and of different affinity for glycocholate”.

These data come from PMC4500398, “All-Purpose Containers? Lipid-Binding Protein – Drug Interactions” (PLoS ONE, 2015).
